Experimental data reported in patent US11286268B1, “EIF4E-inhibiting compounds and methods” (EFFECTOR THERAPEUTICS, INC., priority 2019, dated 2022).
pIC50: −log10 of the molar value. Read-outs that look alike come from different tables or passages of the source.

Target: recombinant eIF4E (Homo sapiens (Human), UniProt P06730)
Experiment: Fluorescence polarization competition assay for eIF4E binding potency
Description: Compounds were screened for eIF4E binding potency using a fluorescence polarization competition assay. All binding reactions were performed in fluorescence polarization buffer (FPB) containing 20 mM Tris pH 7.5, 100 mM NaCl, 1 mM DTT, and 0.02% Tween-20. Final binding reactions contained 75 nM recombinant eIF4E (Beryllium, custom order), 20 nM EDA-m^7GDP-ATTO-550 (Jena Bioscience, NU-827-550) and varying concentrations of the inhibitory compound of interest. Final DMSO concentration in each reaction was 1%.
eIF4E protein was pre-incubated with EDA-m^7GDP-ATTO-550 in FPB at 2× concentrations for 5 minutes prior to the addition of compounds. Compounds (100×) were prepared using 3-fold serial dilutions in 100% DMSO, and subsequently diluted 1:50 in FPB to produce 2× stocks. 50 μl of 2× eIF4E/EDA-m^7GDP-ATTO-550 were transferred to the wells of a 96-well half-area black flat bottom polystyrene plate. 50 μl of 2× test compound were added, and binding reactions were allowed to equilibrate for 30 minutes at room temperature while protected from light. The fluorescent polarization signal was detected using a Victor 2 multi-label counter (Perkin Elmer) and the concentration necessary to achieve inhibition of eIF4E/EDA-m^7GDP-ATTO-550 binding by 50% (IC50) was calculated using data from an 8-point compound dilution series.
In Table 4A, IC50 values of less than 0.05 μM are labelled as “+++”, from 1 to 0.05 μM are labelled as “++”, and greater than 1 μM are labelled as “+”. ND=not determined.

[1] = inhibition of eIF4E/EDA-m7GDP-ATTO-550 binding by 50%, Table 4B calculated values, read-out: IC50
[2] = fluorescence polarization competition, 75 nM recombinant eIF4E, 20 nM EDA-m7GDP-ATTO-550, IC50 class, read-out: elF4E FP

Sequence of recombinant eIF4E (P06730 whole entry): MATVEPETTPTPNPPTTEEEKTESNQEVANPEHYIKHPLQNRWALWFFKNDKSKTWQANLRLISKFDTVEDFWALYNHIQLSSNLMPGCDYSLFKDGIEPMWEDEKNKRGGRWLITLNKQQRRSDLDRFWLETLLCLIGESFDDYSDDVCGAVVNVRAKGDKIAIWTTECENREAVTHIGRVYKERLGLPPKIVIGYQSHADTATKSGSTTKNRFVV

| pIC50 [1] | pIC50 [2] | Structure (SMILES) |
| --- | --- | --- |
| 7.20 |  | Cc1nc2cncc(C#N)c2c(=O)n1CCOc1ccc(Cl)cc1-c1cccc(P(=O)(O)O)c1 [150FA] |
| 6.84 |  | Cc1nc2cncc(C#N)c2c(=O)n1CCOc1ccc(Cl)cc1-c1cccc(P(=O)(O)OC(C)C)c1 [150FB] |
| 6.91 |  | Cc1nc2cnccc2c(=O)n1CCOc1ccc(Cl)cc1-c1cccc(P(=O)(O)O)c1 [150FC] |
| 7.36 |  | Cc1cc(-c2cc(Cl)ccc2OCCn2c(C)nc3cc(C(F)(F)F)c(-c4ccccc4C#N)nc3c2=O)c2scc(C(=O)O)c2n1 [345a] |
| 7.60 |  | Cc1cc(-c2cc(Cl)ccc2OCCn2c(C)nc3cc(C(F)(F)F)c(-c4ccccc4C(N)=O)nc3c2=O)c2scc(C(=O)O)c2n1 [345b] |
| 6.05 |  | Cc1cc(-c2cc(Cl)ccc2OCCn2c(C)nc3cc(C(F)(F)F)cc(O)c3c2=O)c2scc(C(=O)O)c2n1 [351a] |
| 7.03 |  | Cc1cc(-c2cc(Cl)ccc2OCCn2c(C)nc3cc(C(F)(F)F)ccc3c2=O)c2scc(C(=O)O)c2n1 [351b] |
| 8.54 |  | Cc1cc(-c2cc(Cl)ccc2OCCn2c(C)nc3cc(C(F)F)c(N(C)C)c(C#N)c3c2=O)c2scc(C(=O)O)c2n1 [439a] |
| 7.49 |  | Cc1cc(-c2cc(Cl)ccc2OCCn2c(C)nc3cc(C(F)F)c(O)c(C#N)c3c2=O)c2scc(C(=O)O)c2n1 [439b] |
| 5.71 | < 6.00 | Cc1cc(-c2nc3c(=O)n(CCOc4ccc(Cl)cc4-c4ccc(C#N)c5c(C(=O)O)csc45)c(C)nc3cc2C(F)(F)F)ccn1 [788Fa] |
| 8.36 | > 7.30 | Cc1cc(-c2nc3c(=O)n(CCOc4ccc(Cl)cc4-c4ccc(C(N)=O)c5c(C(=O)O)csc45)c(C)nc3cc2C(F)(F)F)ccn1 [788Fb] |
| 7.42 |  | Cc1cc(-c2cc(Cl)ccc2OCCn2c(C)nc3cc(Cl)c(N4C[C@@H](C)N(C)[C@@H](C)C4)c(C#N)c3c2=O)c2sc(C)c(C(=O)O)c2n1 [1090a] |
| 6.30 |  | Cc1cc(-c2cc(Cl)ccc2OCCn2c(C)nc3cc(N4C[C@@H](C)N(C)[C@@H](C)C4)c(F)c(C#N)c3c2=O)c2sc(C)c(C(=O)O)c2n1 [1090b] |
| 7.72 |  | Cc1nc2cnc(N(C)C3CCN([C@H]4C[C@@H](OC(F)(F)F)C4)CC3)c(C#N)c2c(=O)n1CC#Cc1ccc(Cl)cc1-c1ccnc2c(C(=O)O)csc12 [1173a] |
| 7.89 |  | COCCC(CCOC)N(C)c1ncc2nc(C)n(CC#Cc3ccc(Cl)cc3-c3ccnc4c(C(=O)O)csc34)c(=O)c2c1C#N [1173b] |
| 7.64 | > 7.30 | Cc1nc2cc(C(F)(F)F)cc(C#N)c2c(=O)n1CCOc1ccc(Cl)cc1-c1ccnc2c(C(=O)O)csc12 [Compound 272] |
| 7.29 | 6.00 to 7.30 | COc1cncc(-c2c(C(F)(F)F)cc3nc(C)n(CCOc4ccc(Cl)cc4-c4cc(C)nc5c(C(=O)O)csc45)c(=O)c3c2C#N)c1 [Compound 1060] |
| 8.82 | > 7.30 | CCc1cc(-c2cc(Cl)ccc2OCCn2c(C)nc3c(C)nc(N)c(C#N)c3c2=O)c2scc(C(=O)O)c2n1 [Compound 1069] |
| 6.55 | 6.00 to 7.30 | Cc1nc2cnccc2c(=O)n1CCOc1ccc(Cl)cc1-c1cccc(C(=O)O)c1 [compound 1] |

| pIC50 [1] | pIC50 [2] | Structure (SMILES) |
| --- | --- | --- |
| 5.33 | < 6.00 | O=C(O)c1cccc(-c2cc(Cl)ccc2OCCn2cnc3cc(F)ccc3c2=O)c1 [compound 3] |
| 5.45 | < 6.00 | O=C(O)c1cccc(-c2cc(Cl)ccc2OCCn2cnc3cccc(F)c3c2=O)c1 [compound 4] |
| 5.12 | < 6.00 | O=C(O)c1cccc(-c2cc(Cl)ccc2OCCn2ccc3cnccc3c2=O)c1 [compound 5] |
| 5.13 | < 6.00 | O=C(O)c1cccc(-c2cc(Cl)ccc2OCCn2ccc3ccncc3c2=O)c1 [compound 6] |
| 4.92 | < 6.00 | O=C(O)c1cccc(-c2cc(Cl)ccc2OCCn2ccc3cccnc3c2=O)c1 [compound 7] |
| < 4.52 | < 6.00 | O=C(O)c1cccc(-c2cc(Cl)ccc2OCCn2ccc3ccccc3c2=O)c1 [compound 9] |
| 5.19 | < 6.00 | O=C(O)c1cccc(-c2cc(Cl)ccc2OCCn2ccc3ncccc3c2=O)c1 [compound 10] |
| 5.16 | < 6.00 | O=C(O)c1cccc(-c2cc(Cl)ccc2OCCn2cnc3ccccc3c2=O)c1 [compound 11] |
| 5.62 | < 6.00 | O=C(O)c1cccc(-c2cc(Cl)ccc2OCCn2cnc3ccncc3c2=O)c1 [compound 12] |
| 5.97 | < 6.00 | O=C(O)c1cccc(-c2cc(Cl)ccc2OCCn2cnc3ccncc3c2=O)c1 [compound 13] |
| < 5.52 | < 6.00 | O=C(O)c1cccc(-c2cc(Cl)ccc2OCCn2ccc3ncncc3c2=O)c1 [compound 14] |
| 5.76 | < 6.00 | O=C(O)c1cccc(-c2cc(Cl)ccc2OCCn2ccc3nnccc3c2=O)c1 [compound 15] |
| 6.14 | 6.00 to 7.30 | O=C(O)c1cccc(-c2cc(Cl)ccc2OCCn2cnc3ncncc3c2=O)c1 [compound 17] |
| 6.08 | 6.00 to 7.30 | O=C(O)c1cccc(-c2cc(Cl)ccc2OCCn2cnc3nnccc3c2=O)c1 [compound 18] |
| 6.08 | 6.00 to 7.30 | O=C(O)c1cccc(-c2cc(Cl)ccc2OCCn2cnc3nccnc3c2=O)c1 [compound 19] |
| 6.24 | 6.00 to 7.30 | O=C(O)c1cccc(-c2cc(Cl)ccc2OCCn2cnc3cccnc3c2=O)c1 [compound 21] |
| 7.60 | > 7.30 | Cc1nc2c(F)cc(C(F)F)c(C#N)c2c(=O)n1CCOc1ccc(Cl)cc1-c1ccnc2c(C(=O)O)csc12 [compound 22] |
| 6.74 | 6.00 to 7.30 | CC#Cc1c(C(=O)O)cccc1-c1cc(Cl)ccc1OCCn1cnc2cnc(C#N)cc2c1=O [compound 24] |
| 4.90 | < 6.00 | N#Cc1cc2c(=O)n(Cc3cc4cc(Cl)cc(-c5cccc(C(=O)O)c5)c4o3)cnc2cn1 [compound 25] |

| pIC50 [1] | pIC50 [2] | Structure (SMILES) |
| --- | --- | --- |
| 6.04 | 6.00 to 7.30 | O=C(O)c1cccc(-c2cc(Cl)ccc2OCCn2cnc3cnc(Sc4ccccc4)cc3c2=O)c1 [compound 26] |
| 6.83 | 6.00 to 7.30 | N#Cc1ccc2ncn(CCOc3ccc(Cl)cc3-c3cccc(C(=O)O)c3)c(=O)c2c1C#N [compound 27] |
| 7.21 | 6.00 to 7.30 | N#Cc1c(C(F)F)ccc2ncn(CCOc3ccc(Cl)cc3-c3cccc(C(=O)O)c3)c(=O)c12 [compound 28] |
| 6.68 | 6.00 to 7.30 | N#Cc1cc2c(=O)n(CCOc3ccc(Cl)cc3-c3ccnc(C(=O)O)c3)cnc2cn1 [compound 29] |
| 6.79 | 6.00 to 7.30 | N#Cc1cc2c(=O)n(CCOc3ccc(Cl)cc3-c3ccnc4c(C(=O)O)csc34)cnc2cn1 [compound 30] |
| 6.72 | 6.00 to 7.30 | CNS(=O)(=O)c1cc2c(=O)n(CCOc3ccc(Cl)cc3-c3cccc(C(=O)O)c3)cnc2cn1 [compound 32] |
| 6.69 | 6.00 to 7.30 | Cc1nc2c(C(F)F)nc(C#N)cc2c(=O)n1CCOc1ccc(Cl)cc1-c1cccc(C(=O)O)c1 [compound 33] |
| 7.05 | 6.00 to 7.30 | N#Cc1cncc2ncn(CCOc3ccc(Cl)cc3-c3cccc(C(=O)O)c3)c(=O)c12 [compound 34] |
| 7.35 | > 7.30 | Cc1nc2cncc(C#N)c2c(=O)n1CCOc1ccc(Cl)cc1-c1ccnc(C(=O)O)c1 [compound 35] |
| 7.40 | > 7.30 | Cc1nc2c(C(F)F)ccc(C#N)c2c(=O)n1CCOc1ccc(Cl)cc1-c1cccc(C(=O)O)c1 [compound 37] |
| 7.26 | 6.00 to 7.30 | Cc1nc2c(C(F)(F)F)ncc(C#N)c2c(=O)n1CCOc1ccc(Cl)cc1-c1cccc(C(=O)O)c1 [compound 38] |
| 6.94 | 6.00 to 7.30 | N#Cc1cncc2nc(C(F)F)n(CCOc3ccc(Cl)cc3-c3ccnc4c(C(=O)O)csc34)c(=O)c12 [compound 39] |
| 5.46 | < 6.00 | N#Cc1cc2c(=O)n(C/C=C/c3ccc(Cl)cc3-c3cccc(C(=O)O)c3)cnc2cn1 [compound 41] |
| 4.70 | < 6.00 | N#Cc1cc2c(=O)n(CCCc3ccc(Cl)cc3-c3cccc(C(=O)O)c3)cnc2cn1 [compound 42] |
| < 5.00 | < 6.00 | N#Cc1cc2c(=O)n(C[C@@H]3C[C@H]3c3ccc(Cl)cc3-c3cccc(C(=O)O)c3)cnc2cn1 [compound 43] |
| 7.14 | 6.00 to 7.30 | Cc1nc2cncc(C#N)c2c(=O)n1C/C=C/c1ccc(Cl)cc1-c1cccc(C(=O)O)c1 [compound 44] |
| 5.54 | < 6.00 | Cc1ccc(C(=O)O)c2nccc(-c3cc(Cl)ccc3OCCn3cnc4cncc(C#N)c4c3=O)c12 [compound 45] |
| 7.17 | 6.00 to 7.30 | N#Cc1cc(C(F)(F)F)cc2c(Cl)c(Cl)n(CCOc3ccc(Cl)cc3-c3ccnc4c(C(=O)O)csc34)c(=O)c12 [compound 46] |
| 6.20 | 6.00 to 7.30 | N#Cc1cncc2nc(CCC(=O)O)n(CCOc3ccc(Cl)cc3-c3ccccc3)c(=O)c12 [compound 48] |
